One test relates to E. coli MG1655. It is filed as cell-based. Conditions: for Number DE Genes: false discovery rate below 1%. An excerpt: RNA-Seq results for promoter activation in E. coli MG1655 in response to single and multiple toxin exposures at low and high concentrations: Our analysis of the sequencing data from RNA-Seq experiments to determine candidate genes that are induced upon toxin exposure consisted of three main tasks: sequence alignment, quantification of gene expression, and identification of differentially expressed genes. Sequence alignment: Reads were aligned to the reference E. coli K-12 substr. MG1655 genome using a tolerance of at most two mismatches per alignment to protect against sequencing errors. The alignment was performed using Bowtie software, 5 which is known to be very efficient in aligning reads to a reference genome. Without being limiting, Bowtie software 5 can be used for the alignment. Those skilled in the art will appreciate that there are many such software programs for performing alignments.
Quantification of gene expression: The expression level of each gene was determined as a function of the number of aligned reads mapping to the gene. […] Additionally, we implemented our own algorithms for sequence alignment and quantification of gene expression in order to crosscheck all results.
Identification of differentially expressed genes: Finally, a set of statistical and information theory algorithms were applied in order to extract not only differentially expressed (DE) genes for each toxin with respect to the control samples (pure water) but also toxin-specific genes. DESeq is a standard tool for identifying DE genes that allowed us to select sensitive genes with differential expression between the control samples (pure water) and the cells exposed to toxin. It assumes that the number of counts for each gene across experimental replicates follows a negative binomial distribution (8, 9). We considered genes with a False Discovery Rate (FDR) lower than 1% as DE in order to ensure statistically robust DE genes. […] Additionally, genes with the largest number of counts and expression levels are preferable in order to maximize the signal-to-noise ratio. When it is not possible to find toxin-specific genes, the next generation of good candidates is formed by those genes satisfying the above properties for a small subset of toxins (multiple-toxin response). It is desirable to have single-toxin-specific genes for several of the toxins in the combination in order to determine toxin-specific multi-gene-responses by means of logical operations. […] Therefore, we have developed information theoretic measures to improve the toxin separability. The core idea of the approach is that low entropies (or highly informative genes) correspond to toxin-specific genes, while large entropies (low information) are associated with scenarios in which DE fold-changes across different toxins are similar and should be discarded.
Milestone 2.1: Expose target cells to toxins of interest over four orders of magnitude of concentration and extract RNA: Three strains of bacteria were exposed to relevant levels of all toxins and extracted RNA. The toxin exposure protocol involves first growing a culture of bacterial cells to mid-log phase (OD≤0.2). […] Finally, cellular RNA was stabilized using Qiagen RNA Protect reagent, the cells were centrifuged, and the pellet was frozen at −80° C. To investigate the cellular RNA response to toxin insult, we exposed E. coli MG1655, E. coli LABEC01, and B. subtilis 168 cells to the toxins and concentrations shown in Table 7 and extracted RNA.
Milestone 2.5: Prepare isolated RNA for Illumina sequencing using vendor provided reagents and carry out sequencing: We have prepared libraries and carried out sequencing for all toxins of interest.

The next test concerns Cr5. The test can be described thus: microplate specificity test with on- and off-target heavy metals (fluorescence). Type of test: cell-based, E. coli. Conditions: on-target = 1, no-toxin control = 0; As 1.3, Cd 0.44, Cr(VI) 2, Cu 20, Pb 1, Hg 0.1, Co 20, Fe 500, Ni 1.7, Zn 7.6 μM. The text has this:
(§1) Each column represents the fluorescence response of a strain to the on-target metal (normalized to “1”) and all off-target metals, where “0” represents the unchanged response for the no-toxin control.
(§2) Although the ability to sense cobalt, iron, nickel, and zinc is of secondary importance, these heavy metals were included as potential off-target inducers because they may be present in the natural water supply under test. […] This combinatorial logic was implemented in algorithms.

The next test deals with Cd1. The test is described as above. The settings on record: on-target = 1, no-toxin control = 0; As 1.3, Cd 0.44, Cr(VI) 2, Cu 20, Pb 1, Hg 0.1, Co 20, Fe 500, Ni 1.7, Zn 7.6 μM. It is filed as cell-based, E. coli.
Source text: as §1, §2

The subject of a further test is Pb2. Described as above. The settings on record: on-target = 1, no-toxin control = 0; As 1.3, Cd 0.44, Cr(VI) 2, Cu 20, Pb 1, Hg 0.1, Co 20, Fe 500, Ni 1.7, Zn 7.6 μM. It is filed as cell-based, E. coli.
Source text: as §1, §2

Another test has as its system As3. The test is described as above. It is filed as cell-based, E. coli. Conditions: on-target = 1, no-toxin control = 0; As 1.3, Cd 0.44, Cr(VI) 2, Cu 20, Pb 1, Hg 0.1, Co 20, Fe 500, Ni 1.7, Zn 7.6 μM.
Source text: as §1, §2

The subject of the next test is Hg3. Described as above. The settings on record: on-target = 1, no-toxin control = 0, As 1.3, Cd 0.44, Cr(VI) 2, Cu 20, Pb 1, Hg 0.1, Co 20, Fe 500, Ni 1.7, Zn 7.6 μM. It is filed as cell-based, E. coli.
Source text: as §1, §2

The subject of a further test is Cu1. The test is described as above. Type of test: cell-based, E. coli. The settings on record: on-target = 1, no-toxin control = 0; As 1.3, Cd 0.44, Cr(VI) 2, Cu 20, Pb 1, Hg 0.1, Co 20, Fe 500, Ni 1.7, Zn 7.6 μM.
Source text: as §1, §2

A further test concerns E. coli MG1655/Pb7. Nature of the test: 8-strain chip induction (fluorescence induction ratio). Type of test: cell-based. Conditions: toxin at t=0, pure water at t=2 hours; arsenic 0.2, cadmium 0.05, chromium(VI) 0.5, copper 5, lead 1.8 μM. An excerpt: An overview of the sensor can be seen in FIG. 39. In order to acquire the large amount of data required to successfully train the classifier, five replicates of the fully self-contained device prototype were built, in which the microfluidic devices are mounted and imaged using custom-designed optics as shown in some embodiments herein (Milestone 6.9). The majority of the data for this project was acquired using a novel microfluidic device capable of housing eight different bacterial strains that receive media from a shared source. […] The design was expanded to house 18 strains and we have begun taking data with this new chip to provide larger datasets to the classifier. A detailed CAD drawing of this device can be seen in FIG. 56. The 18 cell trapping regions are vacuum-loaded from 18 downstream fluidic ports. Long, serpentine channels upstream of the trapping regions serve as fluidic buffer zones to prevent the cross-contamination of strains while loading. The toxin concentration is controlled dynamically by a peristaltic pump that mixes a water/toxin combination (representing the source water stream) with a concentrated medium stock.
In each panel, the time series data for the “on-target” responding strain is plotted in bold.

For another test, the system named is E. coli MG1655 cells. The test can be described thus: batch growth curves of cells exposed to toxin around the EPA limit. Type of test: cell-based. The settings on record: batch culture, levels around the EPA limit.

Like-named read-outs stand apart in the source and are kept apart here.

Source text for E. coli MG1655 cells: In determining the toxin concentrations for exposure, EPA limit was explored. […] The general strategy was to examine the cellular RNA response at toxin levels where the cells are responding specifically to the presence of the toxin without triggering a universal (and unspecific) cellular stress response.

Take `[As]` [Arsenic]: the “response of the arsR promoter” value in the test on E. coli MG1655 (RNA-Seq mean fold change) is “responds specifically and monotonically to increasing concentrations”. Moreover, the “Number DE Genes” value in the test on E. coli MG1655 (high concentration) was found to be 14; with E. coli MG1655 (low concentration), 3. In addition, the “fluorescence response of strain Cr5 (on-target chromium(VI))” value (from here on “fluorescence response of strain Cr5”) with Cr5 was 0.24. Moreover, in the test on Cd1, the “fluorescence response of strain Cd1 (on-target cadmium)” value (“fluorescence response of strain Cd1” below) is listed as −0.18. In the test on Pb2, the “fluorescence response of strain Pb2 (on-target lead)” value (“fluorescence response of strain Pb2” below) amounted to 0.33. Besides, the “fluorescence response of strain As3 (on-target arsenic)” value (shortened to “fluorescence response of strain As3”) in the test with As3 is given as 1.00. The “fluorescence response of strain Hg3 (on-target mercury)” value (shortened to “fluorescence response of strain Hg3”) in the test with Hg3 was found to be 0.25. For the same compound, the “fluorescence response of strain Cu1 (on-target copper)” value (“fluorescence response of strain Cu1” for short) in the test on Cu1 is −0.05. Also, the “GFP response of strain Pb7” value in the test with E. coli MG1655/Pb7 is on record as “smaller response”.

Consider `[Cd]` [Cadmium], for which, in the test with E. coli MG1655 (RNA-Seq mean fold change), the “response of the zntA promoter” value is reported as “responds monotonically to increasing concentrations”. For the same compound, the results for the “Number DE Genes” value in the test with E. coli MG1655 (high concentration) and in the test with E. coli MG1655 (low concentration) were 38 and 132, respectively. Moreover, the “fluorescence response of strain Cr5” value in the test on Cr5 is −0.02. The “fluorescence response of strain Cd1” value with Cd1 is 1.00. Also, the “fluorescence response of strain Pb2” value in the test with Pb2 turned out to be 0.46. Also, in the test on As3, the “fluorescence response of strain As3” value is recorded as −0.13. Besides, in the test on Hg3, the “fluorescence response of strain Hg3” value was −0.26. In the test on Cu1, the “fluorescence response of strain Cu1” value is −0.08. In the test on E. coli MG1655/Pb7, the “GFP response of strain Pb7” value is “much larger response”.

For the compound `[Cr+6]` [Chromium(VI)], the “growth phase lag of cells exposed to toxin” value (from here on “growth phase lag”) in the test on E. coli MG1655 cells is “exhibited this growth phase lag”. Besides, in the test on E. coli MG1655 (RNA-Seq mean fold change), the “response of the recN promoter” value is “only shows sensitivity to high concentrations”, the “response of the sulA promoter” value was “only shows sensitivity to high concentrations” and the “response of the umuD promoter” value is recorded as “only shows sensitivity to high concentrations”. For the same compound, the “Number DE Genes” value in the test with E. coli MG1655 (high concentration) turned out to be 377. In addition, in the test on E. coli MG1655 (low concentration), the “Number DE Genes” value is recorded as 270. Further, the “fluorescence response of strain Cr5” value in the test on Cr5 is listed as 1.00. Moreover, the “fluorescence response of strain Cd1” value with Cd1 was 0.62. In the test on Pb2, the “fluorescence response of strain Pb2” value is 1.69. Further, the “fluorescence response of strain As3” value in the test with As3 is on record as −0.22. Besides, the “fluorescence response of strain Hg3” value in the test on Hg3 is given as −0.96. Further, the “fluorescence response of strain Hg3” value in the test with Hg3 (listed as chromium(VI)) is “sensitive”. Also, in the test on Cu1, the “fluorescence response of strain Cu1” value is −0.06. The “GFP response of strain Pb7” value in the test with E. coli MG1655/Pb7 is given as “equal magnitude but more rapid response”.

Consider `[Cu]` [Copper], for which, in the test on E. coli MG1655 cells, the “growth phase lag” value is “delay the onset of the exponential growth phase”. In the test on E. coli MG1655 (RNA-Seq mean fold change), the “response of the cusC promoter” value was “responds monotonically to increasing concentrations” and the “response of the cusR promoter” value was “only shows sensitivity to high concentrations”. In the test on E. coli MG1655 (high concentration), the “Number DE Genes” value was determined as 77. Besides, the “Number DE Genes” value with E. coli MG1655 (low concentration) stood at 110. In addition, in the test on Cr5, the “fluorescence response of strain Cr5” value is reported as −0.08. In the test on Cd1, the “fluorescence response of strain Cd1” value is recorded as −0.09. In the test with Pb2, the “fluorescence response of strain Pb2” value is on record as −0.17. In addition, the “fluorescence response of strain Hg3” value in the test on Hg3 stood at 0.16. Besides, in the test on Cu1, the “fluorescence response of strain Cu1” value is recorded as 1.00. Further, the “GFP response of strain Pb7” value with E. coli MG1655/Pb7 is recorded as “smaller response”.

Turning to `[Pb]` [Lead], in the test with E. coli MG1655 (RNA-Seq mean fold change), the “response of the mntH promoter” value was “responds to high concentrations”; the “response of the shiA promoter” value was “responds to high concentrations”; the “response of the ybiI promoter” value is “responds specifically and monotonically to increasing concentrations”. For the same compound, in the test with E. coli MG1655 (high concentration), the “Number DE Genes” value was 489. The “Number DE Genes” value in the test with E. coli MG1655 (low concentration) turned out to be 99. The “fluorescence response of strain Cr5” value in the test on Cr5 came to 0.01. Moreover, in the test on Cd1, the “fluorescence response of strain Cd1” value is reported as 0.06. Besides, the “fluorescence response of strain Pb2” value in the test on Pb2 is recorded as 1.00. In addition, the “fluorescence response of strain As3” value in the test on As3 was −0.05. Also, in the test on Hg3, the “fluorescence response of strain Hg3” value is on record as 0.12. Further, the “fluorescence response of strain Cu1” value with Cu1 is −0.05. In the test with E. coli MG1655/Pb7, the “GFP response of strain Pb7” value is recorded as “responding”.

Take Mercury: the “growth phase lag” value in the test with E. coli MG1655 cells is listed as “did not exhibit this growth phase lag”. Moreover, the “Number DE Genes” value in the test with E. coli MG1655 (high concentration) was found to be 218; with E. coli MG1655 (low concentration), 165. In addition, the “fluorescence response of strain Cr5” value in the test with Cr5 stood at 0.58. The “fluorescence response of strain Cd1” value with Cd1 was −0.09. The “fluorescence response of strain Pb2” value in the test with Pb2 is given as 1.44. Also, in the test with As3, the “fluorescence response of strain As3” value is −0.18. Also, in the test on Hg3, the “fluorescence response of strain Hg3” value is on record as 1.00. Further, the “fluorescence response of strain Cu1” value in the test with Cu1 is −0.05.

(Values after patent US20220057378A1, “MICROBIAL MICROFLUIDIC BIOSENSOR” (priority 2015, published 2022).)
